Test results: patent publication US3966719A, “4-(Tetrazol-5-yl)-Δ^3 -cephem compounds” (Pfizer Inc., priority 1974, dated 1976)
≈ marks a conversion by molar mass, not a printed value.

These molecules were tested on Streptomyces pyogenes (assay: antimicrobial test in nutrient broth, minimum concentration (MIC) at which growth failed to occur). Conditions: standardized conditions, read-out: In vitro MIC.
Assay type: cell-based

MIC | SMILES
6.2 mg/L (≈ 17.8 µM) | CC1=C(c2nn[nH]n2)N2C(=O)C(NC(=O)Cn3cnnn3)C2SC1 (centres unmarked)
0.1 mg/L (≈ 0.21 µM) | Cn1nnnc1SCC1=C(c2nn[nH]n2)N2C(=O)C(NC(=O)Cc3cccs3)C2SC1 (centres unmarked)
3.12 mg/L (≈ 6.41 µM) | Cn1nnnc1SCC1=C(c2nn[nH]n2)N2C(=O)C(NC(=O)[C@H](O)c3ccccc3)C2SC1 (stereo partly drawn) [7-D-(α-Hydroxy-α-phenylacetamido)-3-(1-methyltetrazol-5-ylthiomethyl)-4-(tetrazol-5-yl)-Δ^3-cephem]
0.78 mg/L (≈ 2.19 µM) | CC1=C(c2nn[nH]n2)N2C(=O)C(NC(=O)Cc3ccccc3)C2SC1 (centres unmarked) [C6H5CH2--, A = H, 7-Phenylacetamido-3-methyl-4-(tetrazol-5-yl)-Δ^3-cephem]
1.5 mg/L (≈ 3.77 µM) | CC1=C(c2nn[nH]n2)N2C(=O)C(NC(=O)C(N=[N+]=[N-])c3ccccc3)C2SC1 (centres unmarked) [C6H5CH(N3)--, A = H]
3.1 mg/L (≈ 8.32 µM) | CC1=C(c2nn[nH]n2)N2C(=O)C(NC(=O)COc3ccccc3)C2SC1 (centres unmarked) [C6H5OCH2--, A = H, 7-Phenoxyacetamido-3-methyl-4-(tetrazol-5-yl)-Δ^3-cephem]
1.5 mg/L (≈ 3.87 µM) | CC1=C(c2nn[nH]n2)N2C(=O)C(NC(=O)[C@H](N)c3ccc(O)cc3)C2SC1 (stereo partly drawn) [D--4-HOC6H4CH(NH2)--, A = H, 7-[D-α-Amino-α-(p-hydroxyphenyl)acetamido]-3-methyl-4-(tetrazol-5-yl)-Δ^3-cephem]
1.5 mg/L (≈ 4.03 µM) | CC1=C(c2nn[nH]n2)N2C(=O)C(NC(=O)[C@H](O)c3ccccc3)C2SC1 (stereo partly drawn) [D--C6H5CH(OH)--, A = H, 7-(D-α-Hydroxyphenylacetamido)-3-methyl-4-(tetrazol-5-yl)-Δ^3-cephem]
0.78 mg/L (≈ 1.9 µM) | CC1=C(c2nn[nH]n2)N2C(=O)C(NC(=O)CSc3nnc(C)s3)C2SC1 (centres unmarked) [R1 not printed, A = H]
0.4 mg/L (≈ 1.1 µM) | CC1=C(c2nn[nH]n2)N2C(=O)C(NC(=O)Cc3cccs3)C2SC1 (centres unmarked) [R1 not printed, A = H]
1.6 mg/L (≈ 3.81 µM) | CC(=O)OCC1=C(c2nn[nH]n2)N2C(=O)C(NC(=O)Cc3cccs3)C2SC1 (centres unmarked) [R1 not printed, A = OCOCH3]
